According to patent US20090214529A9, “KINESIN INHIBITORS” (TaiGen Biotechnology Co., Ltd., priority 2007, published 2009):

Tested on: tumor cell
Experiment: Cytotoxicity assay (MTS)
Assay type: cell-based
Settings: 72 h; incubation for three days; read-out: IC50, tumor cell growth inhibition (MTS)
Description: The efficacy of a test compound in inhibiting tumor cell growth was analyzed using a MTS assay. The MTS assay is a calorimetric method for the determination of viable cells in proliferation by using a tetrazolium compound (3-(4,5-dimethylthiazol-2-yl)-5-(3-[…])-2-(4-sulfophenyl)-2H-tetrazolium, inner salt; MTS) and an electron-coupling agent (phenazine methosulfate; PMS). The MTS reagent is converted by dehydrogenase enzymes in metabolically active cells into a formazan that is soluble in a tissue culture medium.
In this assay, tumor cell suspensions (30 μl/well) were seeded into 384-well flat-bottomed tissue culture plates at an appropriate density overnight. A fresh medium (3 μl/well) containing varying concentrations of a test compound or vehicle was added to the culture followed by incubation for three days. At the end of the incubation, all plates were processed simultaneously as follows: The culture medium was aspirated, a MTS cell proliferation assay (Promega) solution (30 μl/well) was added, and the plates were incubated at 37° C. for about 2 hours. Absorbance (a parameter proportional to the cell mass) was measured at 490 nm using a Multiskan (Thermo Electron Corporation, Waltham, Mass.). Inhibition effects were expressed as corrected T/C values for each test compound according to the following equation:
T/C=(T−Blank)/(C−Blank)×100(%),
where T is the mean absorbance of the treated cells, C is the mean absorbance of the controls, and Blank is the mean absorbance of the cell free well.

Cc1ccc(C(=O)N(CCN)[C@@H](c2nc3c(oc4ccc(F)cc43)c(=O)n2Cc2ccoc2)C(C)C)cc1 [Compound 196]
IC50: < 30 µM

CC(C)[C@H](c1nc2c(oc3ccc(F)cc32)c(=O)n1Cc1ccc(Br)s1)N(CCN)C(=O)c1ccc(Br)cc1 [Compound 210]
IC50: < 30 µM

Cc1ccc(C(=O)N(CCN)C(c2nc3c(oc4ccccc43)c(=O)n2Cc2ccc(Cl)s2)C(C)C)cc1 (stereo not shown) [Compound 160]
IC50: < 30 µM

Cc1ccc(C(=O)N(CCN)C(c2nc3c(oc4ccc(Cl)cc43)c(=O)n2Cc2cc(Br)cs2)C(C)C)cc1 (stereo not shown) [Compound 49]
IC50: < 30 µM

Cc1ccc(C(=O)N(CCCN)C(c2nc3c(oc4ccc(Cl)cc43)c(=O)n2Cc2ccsc2)C(C)C)cc1 (stereo not shown) [Compound 78]
IC50: < 30 µM

Cc1ccc(C(=O)N(CCN)[C@@H](c2nc3c(oc4ccc(F)cc43)c(=O)n2Cc2ccc(I)s2)C(C)C)cc1 [Compound 219]
IC50: < 30 µM

CC(C)C(c1nc2c(oc3ccccc32)c(=O)n1Cc1ccccc1F)N(CCCN)C(=O)c1ccc(Br)cc1 (stereo not shown) [Compound 28]
IC50: < 30 µM

Cc1ccc(C(=O)N(CCCN)C(c2nc3c(sc4ccc(F)cc43)c(=O)n2Cc2ccccc2)C(C)C)cc1 (stereo not shown) [Compound 136]
IC50: < 30 µM

Cc1ccc(C(=O)N(CCCN)C(c2nc3c(oc4ccc(Cl)cc43)c(=O)n2Cc2cccs2)C(C)C)cc1 (stereo not shown) [Compound 43]
IC50: < 30 µM

Cc1ccc(C(=O)N(CCCN)C(c2nc3c(oc4ccccc43)c(=O)n2Cc2ccc(Br)s2)C(C)C)cc1 (stereo not shown) [Compound 14]
IC50: < 30 µM

Cc1ccc(C(=O)N(CCCN)C(c2nc3c(sc4ccccc43)c(=O)n2Cc2ccc(Cl)s2)C(C)C)cc1F (stereo not shown) [Compound 142]
IC50: < 30 µM

Cc1ccc(C(=O)N(CCN)[C@@H](c2nc3c(oc4ccc(F)cc43)c(=O)n2Cc2cccc(F)c2)C(C)C)cc1F [Compound 188]
IC50: < 30 µM

Cc1ccc(C(=O)N(CCCN)C(c2nc3c(oc4ccc(F)cc43)c(=O)n2Cc2ccc(Cl)s2)C(C)C)cc1 (stereo not shown) [Compound 71]
IC50: < 30 µM

Cc1ccc(C(=O)N(CCN)C(c2nc3c(oc4ccccc43)c(=O)n2Cc2ccccc2)C(C)C)cc1 (stereo not shown) [Compound 25]
IC50: < 30 µM

COC(=O)c1ccc(Cn2c(C(C(C)C)N(CCN)C(=O)c3ccc(C)cc3)nc3c(oc4ccc(F)cc43)c2=O)s1 (stereo not shown) [Compound 88]
IC50: < 30 µM

Cc1ccc(C(=O)N(CCN)[C@@H](c2nc3c(oc4ccc(F)cc43)c(=O)n2Cc2ccc(C(F)(F)F)o2)C(C)C)cc1 [Compound 213]
IC50: < 30 µM

Cc1ccc(C(=O)N(CCCN)C(c2nc3c(oc4ccc(F)cc43)c(=O)n2Cc2ccc(Br)o2)C(C)C)cc1 (stereo not shown) [Compound 82]
IC50: < 30 µM

Cc1ccc(C(=O)N(CCN)[C@@H](c2nc3c(oc4ccc(F)cc43)c(=O)n2Cc2ccccc2)C(C)C)cc1 [Compound 191]
IC50: < 30 µM

Cc1ccc(C(=O)N(CCN)[C@@H](c2nc3c(oc4ccc(F)cc43)c(=O)n2Cc2ccco2)C(C)C)cc1 [Compound 185]
IC50: < 30 µM

Cc1ccc(C(=O)N(CCCN)C(c2nc3c(oc4ccc(F)cc43)c(=O)n2Cc2cc(Br)cs2)C(C)C)cc1 (stereo not shown) [Compound 73]
IC50: < 30 µM

CCC(c1nc2c(oc3ccc(Cl)cc32)c(=O)n1Cc1ccccc1)N(CCCN)C(=O)c1ccc(C)cc1 (stereo not shown) [Compound 31]
IC50: < 30 µM

Cc1ccc(C(=O)N(CCCN)C(c2nc3cc4[nH]c(Br)cc4cc3c(=O)n2Cc2cccs2)C(C)C)cc1 (stereo not shown) [Compound 1]
IC50: < 30 µM

Cc1ccc(C(=O)N(CCN)C(c2nc3c(oc4ccc(Br)cc43)c(=O)n2Cc2ccccc2)C(C)C)cn1 (stereo not shown) [Compound 59]
IC50: < 30 µM

CC(C)[C@H](c1nc2c(oc3ccc(F)cc32)c(=O)n1Cc1cccc(F)c1)N(CCN)C(=O)c1ccc(Br)cc1 [Compound 203]
IC50: < 30 µM

Cc1ccc(C(=O)N(CCN)[C@@H](c2nc3c(oc4ccc(F)cc43)c(=O)n2Cc2cc(C)cs2)C(C)C)cc1 [Compound 179]
IC50: < 30 µM

CC(C)C(c1nc2c(sc3ccccc32)c(=O)n1Cc1ccc(Br)s1)N(CCCN)C(=O)c1ccc(Cl)cc1 (stereo not shown) [Compound 147]
IC50: < 30 µM

Cc1ccc(C(=O)N(CCCN)[C@@H](c2nc3c(oc4ccc(F)cc43)c(=O)n2Cc2cc(C)cs2)C(C)C)cc1 [Compound 211]
IC50: < 30 µM

Cc1ccc(C(=O)N(CCN)C(c2nc3c(oc4ccccc43)c(=O)n2Cc2ccc(Br)s2)C(C)C)cc1 (stereo not shown) [Compound 164]
IC50: < 30 µM

Cc1csc(Cn2c(C(C(C)C)N(CCN)C(=O)c3ccc(Cl)cc3)nc3c(oc4ccc(F)cc43)c2=O)c1 (stereo not shown) [Compound 166]
IC50: < 30 µM

CC(C)C(c1nc2c(oc3ccc(F)cc32)c(=O)n1Cc1ccc(Cl)o1)N(CCN)C(=O)c1ccc(C(F)(F)F)cc1 (stereo not shown) [Compound 171]
IC50: < 30 µM

Cc1ccc(C(=O)N(CCN)C(c2nc3c(oc4ccc(C)cc43)c(=O)n2Cc2ccccc2)C(C)C)cc1 (stereo not shown) [Compound 39]
IC50: < 30 µM

CC(C)C(c1nc2c(sc3ccccc32)c(=O)n1Cc1ccc(Cl)s1)N(CCCN)C(=O)c1ccc(Br)cc1 (stereo not shown) [Compound 141]
IC50: < 30 µM

Cc1ccc(C(=O)N(CCN)C(c2nc3c(oc4ccc(Cl)cc43)c(=O)n2Cc2cccs2)C(C)C)cc1 (stereo not shown) [Compound 44]
IC50: < 30 µM

Cc1csc(Cn2c([C@@H](C(C)C)N(CCN)C(=O)c3ccc(Cl)cc3)nc3c(oc4ccc(F)cc43)c2=O)c1 [Compound 181]
IC50: < 30 µM

Cc1ccc(C(=O)N(CCCN)C(c2nc3cc4ccccc4cc3c(=O)n2Cc2ccc(Cl)s2)C(C)C)cc1 (stereo not shown) [Compound 5]
IC50: < 30 µM

Cc1ccc(CN(CCCN)C(c2nc3cc4ccccc4cc3c(=O)n2Cc2ccccc2)C(C)C)cc1 (stereo not shown) [Compound 7]
IC50: < 30 µM

Cc1ccc(C(=O)N(CCN)C(c2nc3c(oc4ccccc43)c(=O)n2Cc2ccc(Br)o2)C(C)C)cc1 (stereo not shown) [Compound 165]
IC50: < 30 µM

Cc1ccc(C(=O)N(CCN)[C@@H](c2nc3c(oc4ccc(F)cc43)c(=O)n2Cc2cccc(F)c2)C(C)C)cc1 [Compound 187]
IC50: < 30 µM

Cc1ccc(C(=O)N(CCCN)C(c2nc3c(oc4ccc(F)cc43)c(=O)n2Cc2ccccc2)C(C)C)cc1 (stereo not shown) [Compound 63]
IC50: < 30 µM

Cc1ccc(C(=O)N(CCN)C(c2nc3c(oc4ccc(F)cc43)c(=O)n2Cc2cc(C#N)cs2)C(C)C)cc1 (stereo not shown) [Compound 112]
IC50: < 30 µM

Cc1ccc(C(=O)N(CCN)[C@@H](c2nc3c(oc4ccc(F)cc43)c(=O)n2Cc2ccco2)C(C)C)cc1F [Compound 186]
IC50: < 30 µM

CCCC(c1nc2c(oc3ccccc32)c(=O)n1Cc1ccccc1)N(CCN)C(=O)c1ccc(C)cc1 (stereo not shown) [Compound 51]
IC50: < 30 µM

Cc1ccc(C(=O)N(CCN)[C@@H](c2nc3c(oc4ccc(F)cc43)c(=O)n2Cc2ccc(Cl)o2)C2CC2)cc1 [Compound 224]
IC50: < 30 µM

Cc1ccc(C(=O)N(CCN)[C@@H](c2nc3c(oc4ccc(F)cc43)c(=O)n2Cc2ccsc2)C(C)C)cc1F [Compound 195]
IC50: < 30 µM

Cc1ccc(C(=O)N(CCN)[C@@H](c2nc3c(oc4ccc(F)cc43)c(=O)n2Cc2ccc(Br)s2)C(C)C)c(F)c1F [Compound 209]
IC50: < 30 µM

CCCC(c1nc2c(oc3ccccc32)c(=O)n1Cc1ccccc1)N(CCCN)C(=O)c1ccc(C)cc1 (stereo not shown) [Compound 50]
IC50: < 30 µM

Cc1ccc(C(=O)N(CCN)[C@@H](c2nc3c(oc4ccc(F)cc43)c(=O)n2Cc2ccc(Cl)o2)C(C)C)cc1 [Compound 189]
IC50: < 30 µM

Cc1ccc(C(=O)N(CCN)C(c2nc3c(oc4cc(F)ccc43)c(=O)n2Cc2cc(C)cs2)C(C)C)cc1 (stereo not shown) [Compound 109]
IC50: < 30 µM

Cc1ccc(C(=O)N(CCCN)C(c2nc3c(I)c4ccccc4cc3c(=O)n2Cc2ccccc2)C(C)C)cc1 (stereo not shown) [Compound 9]
IC50: < 30 µM

CC(C)C(c1nc2c(sc3ccccc32)c(=O)n1Cc1ccc(Br)s1)N(CCCN)C(=O)c1ccc(Br)cc1 (stereo not shown) [Compound 145]
IC50: < 30 µM

Cc1ccc(C(=O)N(CCN)[C@@H](c2nc3c(oc4ccc(F)cc43)c(=O)n2Cc2cccs2)C2CC2)cc1 [Compound 226]
IC50: < 30 µM

Cc1ccc(C(=O)N(CCN)C(c2nc3c(oc4ccc(Cl)cc43)c(=O)n2Cc2ccc(C#N)s2)C(C)C)cc1 (stereo not shown) [Compound 48]
IC50: < 30 µM

Cc1ccc(C(=O)N(CCCN)C(c2nc3c(oc4ccc(F)cc43)c(=O)n2Cc2ccc(Cl)o2)C(C)C)cc1 (stereo not shown) [Compound 91]
IC50: < 30 µM

Cc1ccc(C(=O)N(CCN)C(c2nc3c(oc4ccc(Br)cc43)c(=O)n2Cc2ccccc2)C(C)C)cc1 (stereo not shown) [Compound 37]
IC50: < 30 µM

Cc1ccc(C(=O)N(CCN)C(c2nc3c(oc4ccc(Cl)cc43)c(=O)n2Cc2cccc(F)c2)C(C)C)cc1 (stereo not shown) [Compound 96]
IC50: < 30 µM

Cc1ccc(C(=O)N(CCN)C(c2nc3c(oc4ccc(F)cc43)c(=O)n2Cc2ccc(C(=O)NCC(F)F)s2)C(C)C)cc1 (stereo not shown) [Compound 120]
IC50: < 30 µM

CC(C)C(c1nc2c(sc3ccc(F)cc32)c(=O)n1Cc1ccccc1)N(CCCN)C(=O)c1ccc(Cl)cc1 (stereo not shown) [Compound 139]
IC50: < 30 µM

Cc1ccc(C(=O)N(CCN)C(c2nc3c(oc4ccc(F)cc43)c(=O)n2Cc2ccc(C#N)o2)C(C)C)cc1 (stereo not shown) [Compound 111]
IC50: < 30 µM

Cc1ccc(C(=O)N(CCCN)C(c2nc3c(oc4ccc(F)cc43)c(=O)n2Cc2ccc(Br)s2)C(C)C)cc1 (stereo not shown) [Compound 70]
IC50: < 30 µM

CC(C)[C@H](c1nc2c(oc3ccc(F)cc32)c(=O)n1Cc1cccs1)N(CCN)C(=O)c1ccc(Br)cc1 [Compound 201]
IC50: < 30 µM

Cc1ccc(C(=O)N(CCN)[C@@H](c2nc3c(oc4ccc(F)cc43)c(=O)n2Cc2cccs2)C(C)C)cc1 [Compound 199]
IC50: < 30 µM
